Tests used:
[1] = Fecal lycopene analysis (24 hour fecal pellets); format: in vivo, rat; conditions: for Fecal lycopene: male rat, 744 μg/g in diet
Protocol: (§1) Prior to termination, 3 animals from each group were placed in metabolic cages and 24-hour urine and fecal collections made for subsequent lycopene assay. Blood was collected by heart puncture under anesthesia for lycopene assay and all animals were sacrificed by CO2 anesthesia. Blood and feces were stored at −20° C. At necropsy, all major organ systems were grossly inspected. Any unusual appearing tissues were placed in formalin and saved for later histological examination.
Extraction of lycopene from diet was as follows: A sample of diet containing lycopene was suspended in the injection solvent (Table 4) and homogenized in a polytron homogenizer. Echinenone was added as an internal standard and the mixture centrifuged at 3000 rpm at 4° C. for 15 minutes. The supernatant was decanted and saved and the extraction repeated. The pooled extracts were then dried under N2 gas at 60° C. and the residue dissolved in 0.5 ml injection solvent and then subjected to HPLC analysis. The same method, with minor variations, was used for feces and for lung tissue. The efficiency of lycopene extraction from the diet is shown in Table 6 A&B. At any concentration tested the efficiency ranged from 75% at the highest concentration to 100% for the lowest concentration of lycopene.
The possibility that some lycopene decomposed upon storage prior to extraction must also be considered. […] This, no doubt, is due to the presence of water in the fecal pellet and to the geometry of the pellet. Once freeze-dried, the fecal pellet can easily be powdered, permitting easier access of the solvent to the fecal matrix.

α-tocopherol = assay: Liver vitamin E assay; format: in vivo, Fischer 344 rats
glutathione = assay: Total glutathione assays of blood, liver and kidney; format: in vivo, Fischer 344 rats
Source text: The rationale for measuring glutathione is that the reduced form of the tripeptide thiol, glutathione (Glu-Cys-Gly), participates directly in several key intracellular reactions, including protection against free radical damage. In contrast to carotenoids, which reside in the lipid phase, glutathione is found in the aqueous phase of the cell and there is evidence that lipid and aqueous phase anti-oxidants may interact with one another in such a manner that high levels of one may “spare” or limit the deletion of the other. Total (reduced and oxidized) glutathione assays of blood, liver and kidney (Tables 20-22) were conducted.
The determination of glutathione was by HPLC with dual electrochemical detection (see Kleinman, W. A. & Richie, J. P., J. Chromatogr B 672:73-80, 1995). only 1 case, at the highest lycopene level, was there a significant increase in glutathione levels and this occurred only in the liver.

[2] = Lycopene content of rat serum; format: in vivo, Fischer 344 rats
Protocol: as §1
Extraction of lycopene from serum was conducted by adding 1 ml of serum to 0.1 ml echinenone standard in ethanol and 0.9 ml ethanol. The mixture was then vortexed for 20 seconds, and 2.0 ml hexane added and mixed vigorously for 1 minute. The cloudy mixture was then centrifuged at 3,000 rpm for 15 minutes at 4° C. and the clear hexane layer was decanted. The above procedure was repeated 3-5×. The pooled hexane fraction was then dried under N2 gas at 60° C., and the residue dissolved in 0.5 ml HPLC solvent and analyzed by HPLC.

retinol = assay: Liver vitamin A assay; format: in vivo, Fischer 344 rats; conditions: male
[3] = lyophilization + organic extraction
[4] = female, Group 1 (1280 mg/kg diet)
[5] = female, Group 2 (512 mg/kg diet)
[6] = female, Group 3 (256 mg/kg diet)
[7] = female, Group 5 (51 mg/kg diet)
[8] = male, Group 1 (1280 mg/kg diet)

In the case of `CC(C)=CCC/C(C)=C/C=C/C(C)=C/C=C/C(C)=C/C=C/C=C(C)/C=C/C=C(C)/C=C/C=C(\C)CCC=C(C)C` [Lycopene], the “24 hr fecal lycopene” value [1, 3] is reported as 5,406 μg, the Fecal lycopene [1, 3] is reported as 3,754 μg/g and the Fecal lycopene ([1]; organic extraction) is reported as 2,992 μg/g. The “24 hr fecal lycopene” value ([1]; organic extraction) was 4,309 μg, the “% Efficiency (fecal output/input)” value ([1]; organic extraction) was 44% and the “Liver α-tocopherol” value (α-tocopherol; female, Group 2, lycopene 512 mg/kg diet) was 38 μg/gm. For the same compound, the “Liver α-tocopherol” value (α-tocopherol; male, Group 7, lycopene 1280 mg/kg diet) was 28 μg/gm, the “Liver α-tocopherol” value (α-tocopherol; male, Group 8, lycopene 512 mg/kg diet) was 8 μg/gm and the “Liver α-tocopherol” value (α-tocopherol; male, Group 9, lycopene 256 mg/kg diet) was 23 μg/gm. For the same compound, the “Liver α-tocopherol” value (α-tocopherol; male, Group 11, lycopene 51 mg/kg diet) was 14 μg/gm, the Kidney glutathione (glutathione; female, lycopene 51 ppm) was 0.900 ± 0.101^ μmol/g and the Liver glutathione (glutathione; female, lycopene 51 ppm) was 6.01 ± 0.309 µmol/g. The Whole blood glutathione (glutathione; female, lycopene 51 ppm) was 0.832 ± 0.158^+ μmol/g, the Kidney glutathione (glutathione; female, lycopene 128 ppm) was 0.950 ± 0.0758^ μmol/g and the Liver glutathione (glutathione; female, lycopene 128 ppm) was 6.54 ± 1.09^+ μmol/g. For the same compound, the Whole blood glutathione (glutathione; female, lycopene 128 ppm) was 0.890 ± 0.202 µmol/g, the Kidney glutathione (glutathione; female, lycopene 256 ppm) was 1.030 ± 0.414^+ μmol/g and the Liver glutathione (glutathione; female, lycopene 256 ppm) was 4.87 ± 1.14 µmol/g. For the same compound, the Whole blood glutathione (glutathione; female, lycopene 256 ppm) was 0.848 ± 0.0988 µmol/g, the Kidney glutathione (glutathione; female, lycopene 512 ppm) was 1.090 ± 0.163^+ μmol/g and the Liver glutathione (glutathione; female, lycopene 512 ppm) was 5.88 ± 0.492 µmol/g. For the same compound, the Whole blood glutathione (glutathione; female, lycopene 512 ppm) was 0.930 ± 0.123 µmol/g, the Kidney glutathione (glutathione; female, lycopene 1280 ppm) was 0.089 ± 0.045^+ μmol/g and the Liver glutathione (glutathione; female, lycopene 1280 ppm) was 7.38 ± 0.705^+ μmol/g. For the same compound, the Whole blood glutathione (glutathione; female, lycopene 1280 ppm) was 1.080 ± 0.104 µmol/g, the “dose-related changes in glutathione” value (glutathione; liver, kidney or whole blood) was “No dose-related changes” and the Kidney glutathione (glutathione; male, lycopene 51 ppm) was 0.688 ± 0.316 µmol/g. For the same compound, the Liver glutathione (glutathione; male, lycopene 51 ppm) was 6.77 ± 1.53 µmol/g, the Whole blood glutathione (glutathione; male, lycopene 51 ppm) was 1.030 ± 0.0387 µmol/g and the Kidney glutathione (glutathione; male, lycopene 128 ppm) was 0.686 ± 0.170 µmol/g. For the same compound, the Liver glutathione (glutathione; male, lycopene 128 ppm) was 5.38 ± 0.363 µmol/g, the Whole blood glutathione (glutathione; male, lycopene 128 ppm) was 0.920 ± 0.169 µmol/g and the Kidney glutathione (glutathione; male, lycopene 256 ppm) was 0.624 ± 0.104 µmol/g. For the same compound, the Liver glutathione (glutathione; male, lycopene 256 ppm) was 4.59 ± 1.37 µmol/g, the Whole blood glutathione (glutathione; male, lycopene 256 ppm) was 0.910 ± 0.106 µmol/g and the Kidney glutathione (glutathione; male, lycopene 512 ppm) was 0.854 ± 0.055^+ μmol/g. The Whole blood glutathione (glutathione; male, lycopene 512 ppm) was 0.990 ± 0.141 µmol/g, the Kidney glutathione (glutathione; male, lycopene 1280 ppm) was 0.828 ± 0.128^+ μmol/g and the Liver glutathione (glutathione; male, lycopene 1280 ppm) was 7.16 ± 1.95^+ μmol/g. For the same compound, the Whole blood glutathione (glutathione; male, lycopene 1280 ppm) was 0.948 ± 0.294 µmol/g, the concentration at 10 weeks ([2]; both sexes, Fischer 344, rat, serum, oral, all supplemented groups, males and females, read-out: Serum lycopene levels, overall low to high) was 80 to 370 ng/mL and the “Lycopene content of serum, Median” value [2, 4] was 205 ng/mL. For the same compound, the “Lycopene content of serum, Range” value [2, 4] was 123 to 232 ng/mL, the “Lycopene content of serum, mean ± SD” value [2, 4] was 187 ± 043 ng/mL and the “Lycopene content of serum, Median” value [2, 5] was 180 ng/mL. The “Lycopene content of serum, Range” value [2, 5] was 109 to 211 ng/mL, the “Lycopene content of serum, mean ± SD” value [2, 5] was 169 ± 042 ng/mL and the “Lycopene content of serum, Median” value [2, 6] was 210 ng/mL. For the same compound, the “Lycopene content of serum, Range” value [2, 6] was 174 to 366 ng/mL, the “Lycopene content of serum, mean ± SD” value [2, 6] was 245 ± 083 ng/mL and the “Lycopene content of serum, Median” value [2, 7] was 152 ng/mL. For the same compound, the “Lycopene content of serum, Range” value [2, 7] was 081 to 207 ng/mL, the “Lycopene content of serum, mean ± SD” value [2, 7] was 145 ± 053 ng/mL and the “Lycopene content of serum, Median” value [2, 8] was 160 ng/mL. For the same compound, the “Lycopene content of serum, Range” value [2, 8] was 134 to 230 ng/mL, the “Lycopene content of serum, mean ± SD” value [2, 8] was 168 ± 036 ng/mL and the “Lycopene content of serum, Median” value ([2]; male, Group 2 (512 mg/kg diet)) was 225 ng/mL. For the same compound, the “Lycopene content of serum, Range” value ([2]; male, Group 2 (512 mg/kg diet)) was 148 to 326 ng/mL, the “Lycopene content of serum, mean ± SD” value ([2]; male, Group 2 (512 mg/kg diet)) was 227 ± 068 ng/mL and the “Lycopene content of serum, Median” value ([2]; male, Group 3 (256 mg/kg diet)) was 285 ng/mL. The “Lycopene content of serum, Range” value ([2]; male, Group 3 (256 mg/kg diet)) was 174 to 372 ng/mL, the “Lycopene content of serum, mean ± SD” value ([2]; male, Group 3 (256 mg/kg diet)) was 278 ± 066 ng/mL and the “Lycopene content of serum, Median” value ([2]; male, Group 4 (128 mg/kg diet)) was 215 ng/mL. The “Lycopene content of serum, Range” value ([2]; male, Group 4 (128 mg/kg diet)) was 153 to 328 ng/mL, the “Lycopene content of serum, mean ± SD” value ([2]; male, Group 4 (128 mg/kg diet)) was 231 ± 064 ng/mL and the “Lycopene content of serum, Median” value ([2]; male, Group 5 (51 mg/kg diet)) was 177 ng/mL. The “Lycopene content of serum, Range” value ([2]; male, Group 5 (51 mg/kg diet)) was 100 to 238 ng/mL, the “Lycopene content of serum, mean ± SD” value ([2]; male, Group 5 (51 mg/kg diet)) was 171 ± 049 ng/mL and the Liver retinol (retinol; Group 7, lycopene 1280 mg/kg diet) was 388 μg/gm. The Liver retinol (retinol; Group 8, lycopene 512 mg/kg diet) was 119 μg/gm, the Liver retinol (retinol; Group 9, lycopene 256 mg/kg diet) was 584 μg/gm and the Liver retinol (retinol; Group 11, lycopene 51 mg/kg diet) was 454 μg/gm.

— patent publication US20040191297A1, “Carotenoid formulation” (priority 1997, published 2004)
